Results reported in ChEMBL document CHEMBL4811298, “Discovery of novel class of histone deacetylase inhibitors as potential anticancer agents” (Bioorg Med Chem, 2021).
The source made the active and inactive calls. The rule behind the calls is not given here.

Key:
MCF7 [1] = experiment: Induction of cell cycle arrest in human MCF7 cells assessed as accumulation at G1/S phase at 1 uM incubated for 4 hrs by PI staining based flow cytometric analysis; format: functional
MCF7 [2] = experiment: Induction of apoptosis in human MCF7 cells assessed as downregulation of c-Myc protein expression at 1 to 3 uM measured after 48 hrs western blot analysis; format: functional, cell-based; details: dose 1-3 µM
MCF7 [3] = experiment: Upregulation of HDAC5 gene expression in human MCF7 cells at 3 uM incubated for 24 hrs by whole transcriptome analysis; format: functional, cell-based
MCF7 [4] = experiment: Upregulation of SIRT7 gene expression in human MCF7 cells at 3 uM incubated for 24 hrs by whole transcriptome analysis; format: functional, cell-based
MCF7 [5] = experiment: Upregulation of HDAC7 gene expression in human MCF7 cells at 3 uM incubated for 24 hrs by whole transcriptome analysis; format: functional, cell-based
MCF7 [6] = experiment: Upregulation of SIRT2 gene expression in human MCF7 cells at 3 uM incubated for 24 hrs by whole transcriptome analysis; format: functional, cell-based
Histone deacetylase 4 = Histone deacetylase 4 (Homo sapiens, UniProt P56524); experiment: Inhibition of N-terminal GST-tagged/C-terminal His-tagged human recombinant HDAC4 (627 to 1084 residues) expressed in baculovirus-infected Sf9 cells assessed as reduction in 7-amino-4-methylcoumarin release measured every 5 mins by fluorescence based analysis
MCF7 [7] = experiment: Upregulation of HDAC1 gene expression in human MCF7 cells at 3 uM incubated for 24 hrs by whole transcriptome analysis; format: functional, cell-based
MCF7 [8] = experiment: Upregulation of RELB gene expression in human MCF7 cells at 3 uM incubated for 24 hrs by whole transcriptome analysis; format: functional, cell-based
Histone deacetylase 5 [9] = molecular target: T1, Histone deacetylase 5 (Homo sapiens, UniProt Q9UQL6); experiment: Inhibition of N-terminal GST-tagged human recombinant full length HDAC5 expressed in baculovirus-infected Sf9 cells assessed as reduction in 7-amino-4-methylcoumarin release measured every 5 mins by fluorescence based analysis
MCF7 [10] = experiment: Upregulation of SIRT4 gene expression in human MCF7 cells at 3 uM incubated for 24 hrs by whole transcriptome analysis; format: functional, cell-based
MCF7 [11] = experiment: Upregulation of HDAC4 gene expression in human MCF7 cells at 3 uM incubated for 24 hrs by whole transcriptome analysis; format: functional, cell-based
MCF7 [12] = experiment: Upregulation of HDAC2 gene expression in human MCF7 cells at 3 uM incubated for 24 hrs by whole transcriptome analysis; format: functional, cell-based
MCF7 [13] = experiment: Induction of cell cycle arrest in human MCF7 cells assessed as accumulation at subG1 phase at 1 uM incubated for 24 to 72 hrs by PI staining based flow cytometric analysis; format: functional; details: time 24-72 hrs
MCF7 [14] = experiment: Upregulation of c-REL gene expression in human MCF7 cells at 3 uM incubated for 24 hrs by whole transcriptome analysis; format: functional, cell-based
MCF7 [15] = experiment: Upregulation of HDAC3 gene expression in human MCF7 cells at 3 uM incubated for 24 hrs by whole transcriptome analysis; format: functional, cell-based
MCF7 [16] = experiment: Upregulation of HDAC10 gene expression in human MCF7 cells at 3 uM incubated for 24 hrs by whole transcriptome analysis; format: functional, cell-based
Histone deacetylase 9 = Histone deacetylase 9 (Homo sapiens, UniProt Q9UKV0); experiment: Inhibition of C-terminal His-tagged human HDAC9 (604 to 1066 residues) expressed in baculovirus-infected Sf9 cells assessed as reduction in 7-amino-4-methylcoumarin release measured every 5 mins by fluorescence based analysis
MCF7 [17] = experiment: Upregulation of HDAC6 gene expression in human MCF7 cells at 3 uM incubated for 24 hrs by whole transcriptome analysis; format: functional, cell-based
Histone deacetylase 7 = molecular target: T2, Histone deacetylase 7 (Homo sapiens, UniProt Q8WUI4); experiment: Inhibition of N-terminal GST-tagged human HDAC7 (518 to end residues) expressed in baculovirus-infected Sf9 cells assessed as reduction in 7-amino-4-methylcoumarin release measured every 5 mins by fluorescence based analysis
T2 sequence (Q8WUI4 whole entry): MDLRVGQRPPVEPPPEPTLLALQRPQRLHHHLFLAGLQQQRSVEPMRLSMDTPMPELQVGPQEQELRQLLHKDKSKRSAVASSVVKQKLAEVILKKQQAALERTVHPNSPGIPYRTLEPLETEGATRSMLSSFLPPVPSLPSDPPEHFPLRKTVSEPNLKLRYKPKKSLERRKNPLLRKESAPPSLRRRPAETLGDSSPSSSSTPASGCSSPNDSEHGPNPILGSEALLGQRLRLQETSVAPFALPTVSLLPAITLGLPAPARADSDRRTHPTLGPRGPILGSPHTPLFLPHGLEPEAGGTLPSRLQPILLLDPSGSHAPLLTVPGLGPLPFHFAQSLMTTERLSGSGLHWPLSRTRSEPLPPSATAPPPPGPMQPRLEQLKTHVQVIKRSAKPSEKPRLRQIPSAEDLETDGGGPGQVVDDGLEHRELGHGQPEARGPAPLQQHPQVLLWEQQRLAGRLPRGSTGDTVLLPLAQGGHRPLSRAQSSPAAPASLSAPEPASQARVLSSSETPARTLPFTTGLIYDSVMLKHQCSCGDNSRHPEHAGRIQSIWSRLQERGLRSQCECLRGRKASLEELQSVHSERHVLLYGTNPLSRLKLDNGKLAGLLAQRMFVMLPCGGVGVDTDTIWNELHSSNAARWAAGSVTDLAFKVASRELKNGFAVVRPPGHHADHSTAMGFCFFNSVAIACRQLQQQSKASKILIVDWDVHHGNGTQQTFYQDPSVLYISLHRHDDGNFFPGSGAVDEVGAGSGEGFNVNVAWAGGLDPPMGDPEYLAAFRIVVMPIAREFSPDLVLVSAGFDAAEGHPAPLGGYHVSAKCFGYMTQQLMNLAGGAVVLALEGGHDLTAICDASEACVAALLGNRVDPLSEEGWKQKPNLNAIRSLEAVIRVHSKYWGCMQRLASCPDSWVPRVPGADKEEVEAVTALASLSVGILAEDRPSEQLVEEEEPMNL

MCF7 [18] = experiment: Upregulation of HDAC11 gene expression in human MCF7 cells at 3 uM incubated for 24 hrs by whole transcriptome analysis; format: functional, cell-based
[19] = molecular target: Histone deacetylase 3/Nuclear receptor corepressor 2 (HDAC3/NCoR2) (Homo sapiens, UniProt O15379); experiment: Inhibition of C-terminal His-tagged human recombinant full length HDAC3 (1 to 428 residues)/N-terminal GST-tagged human recombinant NCOR2 (395 to 489 residues) expressed in baculovirus-infected Sf9 cells assessed as reduction in 7-amino-4-methylcoumarin release using fluorogenic HDAC substrate 3 measured every 5 mins by fluorescence based analysis
MCF7 [20] = experiment: Induction of cell cycle arrest in human MCF7 cells assessed as accumulation at G2/M phase at 1 uM incubated for 24 hrs by PI staining based flow cytometric analysis; format: functional
MCF7 [21] = experiment: Induction of apoptosis in human MCF7 cells assessed as increase in caspase 3/7 activity at 1 to 3 uM measured after 48 hrs by ELISA; format: functional, cell-based; details: dose 1-3 µM
MCF7 [22] = experiment: Upregulation of NFkB1 gene expression in human MCF7 cells at 3 uM incubated for 24 hrs by whole transcriptome analysis; format: functional, cell-based
MCF7 [23] = experiment: Upregulation of NFkB2 gene expression in human MCF7 cells at 3 uM incubated for 24 hrs by whole transcriptome analysis; format: functional, cell-based
Histone deacetylase 2 = Histone deacetylase 2 (Homo sapiens, UniProt Q92769); format: cell-based, Sf9
MCF7 [24] = experiment: Upregulation of HDAC8 gene expression in human MCF7 cells at 3 uM incubated for 24 hrs by whole transcriptome analysis; format: functional, cell-based
MCF7 [25] = experiment: Upregulation of SIRT1 gene expression in human MCF7 cells at 3 uM incubated for 24 hrs by whole transcriptome analysis; format: functional, cell-based
MCF7 [26] = experiment: Upregulation of SIRT5 gene expression in human MCF7 cells at 3 uM incubated for 24 hrs by whole transcriptome analysis; format: functional, cell-based
MCF7 [27] = experiment: Upregulation of RELA (p65 ) gene expression in human MCF7 cells at 3 uM incubated for 24 hrs by whole transcriptome analysis; format: functional, cell-based
Histone deacetylase 1 = Histone deacetylase 1 (Homo sapiens, UniProt Q13547); experiment: Inhibition of C-terminal FLAG/His-tagged human recombinant HDAC1 (1 to 482 residues) expressed in baculovirus-infected Sf9 cells assessed as reduction in 7-amino-4-methylcoumarin release using fluorogenic HDAC substrate 3 measured every 5 mins by fluorescence based analysis
MCF7 [28] = experiment: Upregulation of SIRT3 gene expression in human MCF7 cells at 3 uM incubated for 24 hrs by whole transcriptome analysis; format: functional, cell-based
Histone deacetylase 5 [29] = molecular target: T1, Histone deacetylase 5; experiment: Potency index, ratio of vorinostat IC50 to test compound IC50 for Inhibition of N-terminal GST-tagged human recombinant full length HDAC5 expressed in baculovirus-infected Sf9 cells assessed as reduction in 7-amino-4-methylcoumarin release measured every 5 mins by fluorescence based analysis
MCF7 [30] = experiment: Upregulation of SIRT6 gene expression in human MCF7 cells at 3 uM incubated for 24 hrs by whole transcriptome analysis; format: functional, cell-based

T1 sequence (Q9UQL6 whole entry): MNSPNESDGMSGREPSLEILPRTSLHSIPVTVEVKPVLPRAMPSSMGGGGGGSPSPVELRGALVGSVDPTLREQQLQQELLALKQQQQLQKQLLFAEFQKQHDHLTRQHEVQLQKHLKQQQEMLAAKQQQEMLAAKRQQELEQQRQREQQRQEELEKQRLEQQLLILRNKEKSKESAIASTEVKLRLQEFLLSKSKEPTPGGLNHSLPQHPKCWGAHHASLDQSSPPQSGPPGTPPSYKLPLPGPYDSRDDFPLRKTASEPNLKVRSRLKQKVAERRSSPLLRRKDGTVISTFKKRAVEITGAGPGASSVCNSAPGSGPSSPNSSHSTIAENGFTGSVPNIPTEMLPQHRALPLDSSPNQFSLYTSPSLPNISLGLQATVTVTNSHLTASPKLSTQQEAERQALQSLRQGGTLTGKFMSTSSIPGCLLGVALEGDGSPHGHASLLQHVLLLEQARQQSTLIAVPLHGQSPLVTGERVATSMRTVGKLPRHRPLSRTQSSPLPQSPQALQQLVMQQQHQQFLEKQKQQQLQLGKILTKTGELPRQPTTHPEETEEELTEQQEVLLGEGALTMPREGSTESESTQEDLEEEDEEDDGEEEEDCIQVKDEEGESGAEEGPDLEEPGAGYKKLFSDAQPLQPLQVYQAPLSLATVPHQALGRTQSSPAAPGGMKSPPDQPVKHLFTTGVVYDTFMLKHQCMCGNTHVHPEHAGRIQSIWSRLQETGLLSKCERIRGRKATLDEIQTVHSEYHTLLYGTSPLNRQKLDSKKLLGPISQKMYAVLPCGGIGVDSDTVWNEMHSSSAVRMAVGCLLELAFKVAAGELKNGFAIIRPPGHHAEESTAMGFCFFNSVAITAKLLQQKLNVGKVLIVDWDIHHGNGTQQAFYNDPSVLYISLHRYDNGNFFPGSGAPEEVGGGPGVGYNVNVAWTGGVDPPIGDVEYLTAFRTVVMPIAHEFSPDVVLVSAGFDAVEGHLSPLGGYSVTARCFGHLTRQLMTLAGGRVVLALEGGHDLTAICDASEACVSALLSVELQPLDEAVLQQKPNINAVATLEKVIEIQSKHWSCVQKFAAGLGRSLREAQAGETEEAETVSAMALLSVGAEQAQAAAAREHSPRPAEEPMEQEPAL
Sequence of Histone deacetylase 4 (P56524 whole entry, the tested form may be a part): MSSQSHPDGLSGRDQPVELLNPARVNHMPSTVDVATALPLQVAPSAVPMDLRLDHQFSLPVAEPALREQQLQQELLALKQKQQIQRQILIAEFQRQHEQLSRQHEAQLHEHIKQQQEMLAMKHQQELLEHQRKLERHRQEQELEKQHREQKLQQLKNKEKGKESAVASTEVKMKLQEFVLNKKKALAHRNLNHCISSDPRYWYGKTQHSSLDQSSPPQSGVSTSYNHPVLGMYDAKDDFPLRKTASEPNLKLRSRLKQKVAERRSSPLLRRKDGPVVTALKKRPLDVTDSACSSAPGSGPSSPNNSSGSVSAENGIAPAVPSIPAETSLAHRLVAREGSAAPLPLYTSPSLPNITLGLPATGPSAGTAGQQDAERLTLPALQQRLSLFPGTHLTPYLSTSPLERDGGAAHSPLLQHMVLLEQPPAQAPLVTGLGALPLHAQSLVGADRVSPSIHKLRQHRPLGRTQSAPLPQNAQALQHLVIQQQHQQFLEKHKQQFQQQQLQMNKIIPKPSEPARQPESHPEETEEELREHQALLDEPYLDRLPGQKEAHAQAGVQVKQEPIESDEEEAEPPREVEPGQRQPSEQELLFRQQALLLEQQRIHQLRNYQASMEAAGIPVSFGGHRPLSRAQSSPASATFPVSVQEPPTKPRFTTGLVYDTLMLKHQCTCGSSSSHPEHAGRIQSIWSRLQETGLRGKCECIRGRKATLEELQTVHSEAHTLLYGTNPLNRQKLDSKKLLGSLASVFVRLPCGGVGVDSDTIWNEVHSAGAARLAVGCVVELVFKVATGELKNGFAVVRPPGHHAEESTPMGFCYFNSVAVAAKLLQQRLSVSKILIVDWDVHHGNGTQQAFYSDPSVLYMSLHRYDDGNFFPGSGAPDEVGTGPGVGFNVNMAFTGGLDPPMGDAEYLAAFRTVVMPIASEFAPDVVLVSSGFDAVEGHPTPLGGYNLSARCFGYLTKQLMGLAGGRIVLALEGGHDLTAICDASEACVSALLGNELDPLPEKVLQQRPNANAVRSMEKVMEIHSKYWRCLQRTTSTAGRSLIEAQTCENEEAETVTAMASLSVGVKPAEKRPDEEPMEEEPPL
Sequence of Histone deacetylase 1 (Q13547 whole entry, the tested form may be a part): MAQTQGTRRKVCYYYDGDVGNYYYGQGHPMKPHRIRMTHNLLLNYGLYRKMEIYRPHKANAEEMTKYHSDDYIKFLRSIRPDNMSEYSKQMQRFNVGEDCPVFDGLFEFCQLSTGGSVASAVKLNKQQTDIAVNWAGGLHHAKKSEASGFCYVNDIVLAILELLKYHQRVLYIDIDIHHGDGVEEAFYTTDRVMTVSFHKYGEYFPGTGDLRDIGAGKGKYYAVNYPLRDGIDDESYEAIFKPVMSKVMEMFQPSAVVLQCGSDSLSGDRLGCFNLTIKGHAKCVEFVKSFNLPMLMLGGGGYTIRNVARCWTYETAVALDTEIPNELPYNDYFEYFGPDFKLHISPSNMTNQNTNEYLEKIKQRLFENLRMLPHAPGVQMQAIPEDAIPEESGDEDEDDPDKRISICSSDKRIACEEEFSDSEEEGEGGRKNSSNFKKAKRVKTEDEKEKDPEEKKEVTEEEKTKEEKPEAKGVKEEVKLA
Sequence of Histone deacetylase 9 (Q9UKV0 whole entry, the tested form may be a part): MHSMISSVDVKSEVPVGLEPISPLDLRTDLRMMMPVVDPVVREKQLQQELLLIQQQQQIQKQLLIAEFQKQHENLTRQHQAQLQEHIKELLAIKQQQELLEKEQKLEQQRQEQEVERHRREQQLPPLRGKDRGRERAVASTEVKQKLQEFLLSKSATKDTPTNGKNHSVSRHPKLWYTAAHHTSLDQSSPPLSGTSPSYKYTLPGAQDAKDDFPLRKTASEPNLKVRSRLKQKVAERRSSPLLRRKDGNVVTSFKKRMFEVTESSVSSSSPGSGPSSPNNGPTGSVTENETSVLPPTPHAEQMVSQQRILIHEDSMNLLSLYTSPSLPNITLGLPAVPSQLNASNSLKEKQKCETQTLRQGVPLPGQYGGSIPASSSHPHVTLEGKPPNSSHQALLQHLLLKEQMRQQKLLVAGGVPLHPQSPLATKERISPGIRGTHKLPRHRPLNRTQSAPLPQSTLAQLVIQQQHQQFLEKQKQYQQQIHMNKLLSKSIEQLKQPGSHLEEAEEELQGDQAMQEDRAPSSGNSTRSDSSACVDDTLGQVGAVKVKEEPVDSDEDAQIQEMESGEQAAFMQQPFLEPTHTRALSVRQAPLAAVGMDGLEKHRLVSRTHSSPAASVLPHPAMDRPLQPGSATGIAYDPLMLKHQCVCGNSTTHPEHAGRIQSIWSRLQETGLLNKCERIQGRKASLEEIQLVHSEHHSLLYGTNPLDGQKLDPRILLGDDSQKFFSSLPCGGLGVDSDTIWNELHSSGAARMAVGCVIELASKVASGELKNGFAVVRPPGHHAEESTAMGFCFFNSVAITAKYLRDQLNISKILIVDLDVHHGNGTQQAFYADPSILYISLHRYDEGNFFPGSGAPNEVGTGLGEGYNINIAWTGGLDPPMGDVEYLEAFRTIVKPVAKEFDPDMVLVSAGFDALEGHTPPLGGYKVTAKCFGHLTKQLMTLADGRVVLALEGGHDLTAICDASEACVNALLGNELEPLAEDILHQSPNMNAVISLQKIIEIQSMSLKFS
Sequence of Histone deacetylase 2 (Q92769 whole entry): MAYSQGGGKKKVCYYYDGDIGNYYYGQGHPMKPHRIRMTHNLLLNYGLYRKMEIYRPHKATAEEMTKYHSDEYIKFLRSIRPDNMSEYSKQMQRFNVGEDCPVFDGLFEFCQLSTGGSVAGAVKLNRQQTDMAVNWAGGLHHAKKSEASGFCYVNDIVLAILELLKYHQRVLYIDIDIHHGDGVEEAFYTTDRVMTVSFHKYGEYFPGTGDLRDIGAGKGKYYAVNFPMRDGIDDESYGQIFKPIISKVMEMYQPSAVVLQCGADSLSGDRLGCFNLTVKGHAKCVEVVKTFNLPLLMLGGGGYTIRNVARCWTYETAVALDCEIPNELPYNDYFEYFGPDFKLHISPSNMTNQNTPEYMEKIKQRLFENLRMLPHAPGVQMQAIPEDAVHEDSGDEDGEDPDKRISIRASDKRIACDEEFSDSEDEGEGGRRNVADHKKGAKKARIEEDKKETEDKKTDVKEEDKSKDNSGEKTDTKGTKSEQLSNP

Structure (SMILES): CC(C)(C)Nc1c(-c2cccc(-c3nc4cc(-c5noc(C(F)(F)F)n5)ccc4[nH]3)c2)nc2cnccn12
- Activity (MCF7 [1]): Active
- Activity (MCF7 [2]): Active
- Activity (MCF7 [3]): Active
- Activity (MCF7 [4]): Active
- Activity (MCF7 [5]): Active
- Activity (MCF7 [6]): Active
- IC50 (Histone deacetylase 4): 8 µM
- Activity (MCF7 [7]): Active
- Activity (MCF7 [8]): Active
- IC50 (Histone deacetylase 5 [9]): 0.307 µM
- Activity (MCF7 [10]): Active
- Activity (MCF7 [11]): Active
- Activity (MCF7 [12]): Active
- Activity (MCF7 [13]): Active
- Activity (MCF7 [14]): Active
- Activity (MCF7 [15]): Active
- Activity (MCF7 [16]): Active
- IC50 (Histone deacetylase 9): > 10 µM
- Activity (MCF7 [17]): Active
- IC50 (Histone deacetylase 7): > 10 µM
- Activity (MCF7 [18]): Active
- IC50 [19]: > 10 µM
- Activity (MCF7 [20]): Active
- Activity (MCF7 [21]): Active
- Activity (MCF7 [22]): Active
- Activity (MCF7 [23]): Active
- IC50 (Histone deacetylase 2): > 10 µM
- Activity (MCF7 [24]): Active
- Activity (MCF7 [25]): Active
- Activity (MCF7 [26]): Active
- Activity (MCF7 [27]): Active
- IC50 (Histone deacetylase 1): > 10 µM
- Activity (MCF7 [28]): Active
- Ratio IC50 (Histone deacetylase 5 [29]): > 33
- Activity (MCF7 [30]): Active
